# Experimental data: US20230312587A1, “PTERIDINONE COMPOUNDS AND USES THEREOF” (Vertex Pharmaceutical Incorporated, priority 2018, published 2023)
# Test system: β-catenin-TCF-mediated reporter transcription activity in Colo 205 cells
# Assay: Colo 205 reporter assay (TCF/LEF luciferase)
# Type: cell-based
# Settings: Homo sapiens, COLO 205, 5 h, Colo 205 TCF/LEF luciferase reporter, five hours after addition of compound; read-out: TCF reporter Colo205 IC50
# Method in brief: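 Luciferase signal from a TCF/LEF-driven reporter, stably integrated in Colo 205 colon cancer cells, was measured 5 h after compound addition.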
row,SMILES,IC50 [nM]
1,"Cc1cc(C(=O)N2CC(Nc3nc(C)c4c(n3)N(C)[C@@H](C(C)C)C(=O)N4)C2)on1 [Compound 620, (S)-7-isopropyl-4,8-dimethyl-2-((1-(3-methylisoxazole-5-carbonyl)azetidin-3-yl)amino)-7,8-dihydropteridin-6(5H)-one]",≥ 5000
2,"Cc1nc(NC2CN(C(=O)c3ccc(C(F)(F)F)o3)C2)nc2c1NC(=O)[C@H](C(C)C)N2C [Compound 621, (S)-7-isopropyl-4,8-dimethyl-2-((1-(5-(trifluoromethyl)furan-2-carbonyl)azetidin-3-yl)amino)-7,8-dihydropteridin-6(5H)-one]",300 to 1000
3,"Cc1nc(NC2CN(C(=O)c3ccc(C(F)(F)F)cc3)C2)nc2c1NC(=O)[C@H](C(C)C)N2C [Compound 622, (S)-7-isopropyl-4,8-dimethyl-2-((1-(4-(trifluoromethyl)benzoyl)azetidin-3-yl)amino)-7,8-dihydropteridin-6(5H)-one]",< 300
4,"Cc1nc(NC2CN(C(=O)CC3CC4CCC3C4)C2)nc2c1NC(=O)[C@H](C(C)C)N2C (stereo partly drawn) [Compound 623, (7S)-2-((1-(2-(bicyclo[2.2.1]heptan-2-yl)acetyl)azetidin-3-yl)amino)-7-isopropyl-4,8-dimethyl-7,8-dihydropteridin-6(5H)-one]",300 to 1000
5,"Cc1nc(N[C@H]2CCc3c2cnn3Cc2ccc(C(F)(F)F)nc2)nc2c1NC(=O)[C@H](C)N2C [Compound 624, (7S)-4,7,8-trimethyl-2-(((S)-1-((6-(trifluoromethyl)pyridin-3-yl)methyl)-1,4,5,6-tetrahydrocyclopenta[c]pyrazol-4-yl)amino)-7,8-dihydropteridin-6(5H)-one]",≥ 5000
6,"Cc1nc(N[C@@H]2CCc3c2cnn3Cc2ccc(C(F)(F)F)nc2)nc2c1NC(=O)[C@H](C)N2C [Compound 625, (7S)-4,7,8-trimethyl-2-(((R)-1-((6-(trifluoromethyl)pyridin-3-yl)methyl)-1,4,5,6-tetrahydrocyclopenta[c]pyrazol-4-yl)amino)-7,8-dihydropteridin-6(5H)-one]",≥ 5000
7,"Cc1nc(NC2CN(C(=O)Cc3ccc(F)c(F)c3)C2)nc2c1NC(=O)[C@H](C(C)C)N2C [Compound 626, (S)-2-((1-(2-(3,4-difluorophenyl)acetyl)azetidin-3-yl)amino)-7-isopropyl-4,8-dimethyl-7,8-dihydropteridin-6(5H)-one]",< 300
8,"Cc1nc(NC2CN(C(=O)[C@H](C)c3ccccc3)C2)nc2c1NC(=O)[C@H](C(C)C)N2C [Compound 627, (S)-7-isopropyl-4,8-dimethyl-2-((1-((R)-2-phenylpropanoyl)azetidin-3-yl)amino)-7,8-dihydropteridin-6(5H)-one]",1000 to 5000
9,"Cc1nc(CC(=O)N2CC(Nc3nc(C)c4c(n3)N(C)[C@@H](C(C)C)C(=O)N4)C2)c(C)s1 [Compound 628, (S)-2-((1-(2-(2,5-dimethylthiazol-4-yl)acetyl)azetidin-3-yl)amino)-7-isopropyl-4,8-dimethyl-7,8-dihydropteridin-6(5H)-one]",≥ 5000
10,"Cc1nc(NC2CN(C(=O)Cc3cc(F)cc(F)c3)C2)nc2c1NC(=O)[C@H](C(C)C)N2C [Compound 629, (S)-2-((1-(2-(3,5-difluorophenyl)acetyl)azetidin-3-yl)amino)-7-isopropyl-4,8-dimethyl-7,8-dihydropteridin-6(5H)-one]",< 300
11,"Cc1nc(NC2CN(C(=O)c3csc(Cl)n3)C2)nc2c1NC(=O)[C@H](C(C)C)N2C [Compound 630, (S)-2-((1-(2-chlorothiazole-4-carbonyl)azetidin-3-yl)amino)-7-isopropyl-4,8-dimethyl-7,8-dihydropteridin-6(5H)-one]",1000 to 5000
12,"Cc1nc(NC2CN(C(=O)c3cnccn3)C2)nc2c1NC(=O)[C@H](C(C)C)N2C [Compound 631, (S)-7-isopropyl-4,8-dimethyl-2-((1-(pyrazine-2-carbonyl)azetidin-3-yl)amino)-7,8-dihydropteridin-6(5H)-one]",≥ 5000
13,"Cc1nc(NC2CN(C(=O)Cc3cccc(F)c3F)C2)nc2c1NC(=O)[C@H](C(C)C)N2C [Compound 632, (S)-2-((1-(2-(2,3-difluorophenyl)acetyl)azetidin-3-yl)amino)-7-isopropyl-4,8-dimethyl-7,8-dihydropteridin-6(5H)-one]",300 to 1000
14,"Cc1nc(NC2CN(C(=O)c3cnc(Cl)s3)C2)nc2c1NC(=O)[C@H](C(C)C)N2C [Compound 633, (S)-2-((1-(2-chlorothiazole-5-carbonyl)azetidin-3-yl)amino)-7-isopropyl-4,8-dimethyl-7,8-dihydropteridin-6(5H)-one]",1000 to 5000
15,"CO[C@@H](C(=O)N1CC(Nc2nc(C)c3c(n2)N(C)[C@@H](C(C)C)C(=O)N3)C1)c1ccccc1 [Compound 634, (S)-7-isopropyl-2-((1-((R)-2-methoxy-2-phenylacetyl)azetidin-3-yl)amino)-4,8-dimethyl-7,8-dihydropteridin-6(5H)-one]",≥ 5000
16,"Cc1nc(NC2CN(C(=O)c3cccc(C(F)(F)F)c3)C2)nc2c1NC(=O)[C@H](C(C)C)N2C [Compound 635, (S)-7-isopropyl-4,8-dimethyl-2-((1-(3-(trifluoromethyl)benzoyl)azetidin-3-yl)amino)-7,8-dihydropteridin-6(5H)-one]",< 300
17,"Cc1nc(NC2CN(C(=O)[C@H]3CCCO3)C2)nc2c1NC(=O)[C@H](C(C)C)N2C [Compound 636, (S)-7-isopropyl-4,8-dimethyl-2-((1-((R)-tetrahydrofuran-2-carbonyl)azetidin-3-yl)amino)-7,8-dihydropteridin-6(5H)-one]",≥ 5000
18,"Cc1nc(NC2CN(C(=O)C3CCC(C)O3)C2)nc2c1NC(=O)[C@H](C(C)C)N2C (stereo partly drawn) [Compound 637, (7S)-7-isopropyl-4,8-dimethyl-2-((1-(5-methyltetrahydrofuran-2-carbonyl)azetidin-3-yl)amino)-7,8-dihydropteridin-6(5H)-one]",≥ 5000
19,"Cc1nc(NC2CN(C(=O)C3(C)CCCO3)C2)nc2c1NC(=O)[C@H](C(C)C)N2C (stereo partly drawn) [Compound 638, (7S)-7-isopropyl-4,8-dimethyl-2-((1-(2-methyltetrahydrofuran-2-carbonyl)azetidin-3-yl)amino)-7,8-dihydropteridin-6(5H)-one]",≥ 5000
20,"Cc1nc(NC2CN(C(=O)C3CC4CCC3C4)C2)nc2c1NC(=O)[C@H](C(C)C)N2C (stereo partly drawn) [Compound 639, (7S)-2-((1-(bicyclo[2.2.1]heptane-2-carbonyl)azetidin-3-yl)amino)-7-isopropyl-4,8-dimethyl-7,8-dihydropteridin-6(5H)-one]",1000 to 5000
21,"Cc1nc(NC2CN(C(=O)c3ncccn3)C2)nc2c1NC(=O)[C@H](C(C)C)N2C [Compound 640, (S)-7-isopropyl-4,8-dimethyl-2-((1-(pyrimidine-2-carbonyl)azetidin-3-yl)amino)-7,8-dihydropteridin-6(5H)-one]",≥ 5000
22,"Cc1nc(NC2CN(C(=O)[C@@H](C)c3ccccc3)C2)nc2c1NC(=O)[C@H](C(C)C)N2C [Compound 641, (S)-7-isopropyl-4,8-dimethyl-2-((1-((S)-2-phenylpropanoyl)azetidin-3-yl)amino)-7,8-dihydropteridin-6(5H)-one]",≥ 5000
23,"Cc1nc(NC2CN(C(=O)[C@@H]3CCCO3)C2)nc2c1NC(=O)[C@H](C(C)C)N2C [Compound 642, (S)-7-isopropyl-4,8-dimethyl-2-((1-((S)-tetrahydrofuran-2-carbonyl)azetidin-3-yl)amino)-7,8-dihydropteridin-6(5H)-one]",≥ 5000
24,"Cc1nc(N[C@H]2C[C@@H](Oc3cnc(C(F)(F)F)nc3)C2)nc2c1NC(=O)[C@H](C(C)C)N2C [Compound 644, (S)-7-isopropyl-4,8-dimethyl-2-((cis-3-((2-(trifluoromethyl)pyrimidin-5-yl)oxy)cyclobutyl)amino)-7,8-dihydropteridin-6(5H)-one]",< 300
25,"CC[C@H]1C(=O)Nc2c(C)nc(N[C@H]3C[C@H](Oc4cnc(C(F)(F)F)nc4)C3)nc2N1C [Compound 645, (S)-7-ethyl-4,8-dimethyl-2-((trans-3-((2-(trifluoromethyl)pyrimidin-5-yl)oxy)cyclobutyl)amino)-7,8-dihydropteridin-6(5H)-one]",< 300
26,"CC[C@H]1C(=O)Nc2c(C)nc(N[C@H]3C[C@@H](COc4ccc(C(F)(F)F)nc4)C3)nc2N1C [Compound 646, (S)-7-ethyl-4,8-dimethyl-2-((cis-3-(((6-(trifluoromethyl)pyridin-3-yl)oxy)methyl)cyclobutyl)amino)-7,8-dihydropteridin-6(5H)-one]",< 300
27,"CO[C@H](C)[C@H]1C(=O)Nc2c(C)nc(N[C@H]3C[C@@H](Nc4cnc(C(F)(F)F)cn4)C3)nc2N1C [Compound 647, (S)-7-((R)-1-methoxyethyl)-4,8-dimethyl-2-((cis-3-((5-(trifluoromethyl)pyrazin-2-yl)amino)cyclobutyl)amino)-7,8-dihydropteridin-6(5H)-one]",< 300
28,"CC[C@H]1C(=O)Nc2c(C)nc(N[C@H]3C[C@@H](Nc4cnc(C(F)(F)F)cn4)C3)nc2N1C [Compound 648, (S)-7-ethyl-4,8-dimethyl-2-((cis-3-((5-(trifluoromethyl)pyrazin-2-yl)amino)cyclobutyl)amino)-7,8-dihydropteridin-6(5H)-one]",< 300
29,"Cc1nc(NC2CN(Cc3ccc(C(F)(F)F)nc3)C2)nc2c1NC(=O)[C@H](C(C)C)N2C [Compound 649, (S)-7-isopropyl-4,8-dimethyl-2-((1-((6-(trifluoromethyl)pyridin-3-yl)methyl)azetidin-3-yl)amino)-7,8-dihydropteridin-6(5H)-one]",< 300
30,"Cc1nc(NC2CN(Cc3ccc(C(F)(F)F)cc3)C2)nc2c1NC(=O)[C@H](C(C)C)N2C [Compound 650, (S)-7-isopropyl-4,8-dimethyl-2-((1-(4-(trifluoromethyl)benzyl)azetidin-3-yl)amino)-7,8-dihydropteridin-6(5H)-one]",< 300
